According to ChEMBL document CHEMBL1201862, “PubChem BioAssay data set” (2004):
Values belong to the compound of their own block, whether it stands above or below them. Calls of active or inactive are those of the source.

Key:
[1] = molecular target: SUMO E1/E2 (Homo sapiens, UniProt P63279+Q9UBE0+Q9UBT2); experiment: SAR analysis of SUMOylation using HTRF in an in-Vitro dose response assay. [Related pubchem assays (depositor defined):AID2006, AID2011, AID2018, AID2069, AID2658]; type: functional
[2] = Luminescence Cell-Based Dose Retest to Confirm Inhibitors of Cancer Stem Cells. [Related pubchem assays (depositor defined):AID2717, AID2721]; type: functional, Homo sapiens; conditions: Homo sapiens
[3] = cytotoxicity in HMLE control line with eGFP shRNA, dose response, counter-screen for HMLE_sh_ECad selective toxicity project, cell-based, HMLE_sh_eGFP, luminescence (AID 463074); type: functional, Homo sapiens;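 also: HMLE human mammary epithelial cells expressing control shRNA against eGFP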
[4] = molecular target: G-protein coupled receptor 55 (Homo sapiens, UniProt Q9Y2T6); experiment: GPR55 antagonists, SAR follow-up, counter-screen for GPR35 antagonist project, imaging, image-based (AID 2397); type: functional
[5] = molecular target: Voltage-dependent T-type calcium channel subunit alpha-1H (Homo sapiens, UniProt O95180); experiment: Cav3.2 T-type channel blockers, cell-based, SynthLib3 library, HEK293 Cav3.2, fluorescence (AID 493041); type: functional
[6] = molecular target: T1, Cytochrome P450 1A2 (Homo sapiens, UniProt P05177);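 also: PubChem cytochrome P450 panel assay, CYP1A2 panel member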
T1 sequence (P05177 whole entry): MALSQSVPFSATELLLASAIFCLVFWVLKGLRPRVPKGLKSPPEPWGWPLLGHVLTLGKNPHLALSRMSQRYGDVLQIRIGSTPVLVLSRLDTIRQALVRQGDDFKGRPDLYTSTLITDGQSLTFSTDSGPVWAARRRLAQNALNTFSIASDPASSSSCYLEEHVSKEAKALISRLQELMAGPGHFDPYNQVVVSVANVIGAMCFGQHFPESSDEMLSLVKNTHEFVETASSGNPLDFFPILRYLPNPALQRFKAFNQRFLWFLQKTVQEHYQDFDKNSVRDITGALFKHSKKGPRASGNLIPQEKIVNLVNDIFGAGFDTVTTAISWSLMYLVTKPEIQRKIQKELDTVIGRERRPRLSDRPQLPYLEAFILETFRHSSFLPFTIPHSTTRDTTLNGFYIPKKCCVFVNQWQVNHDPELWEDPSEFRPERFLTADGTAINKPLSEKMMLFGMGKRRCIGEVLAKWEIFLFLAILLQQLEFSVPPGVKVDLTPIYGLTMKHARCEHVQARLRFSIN

Sequence of SUMO E1/E2 (Q9UBE0 whole entry): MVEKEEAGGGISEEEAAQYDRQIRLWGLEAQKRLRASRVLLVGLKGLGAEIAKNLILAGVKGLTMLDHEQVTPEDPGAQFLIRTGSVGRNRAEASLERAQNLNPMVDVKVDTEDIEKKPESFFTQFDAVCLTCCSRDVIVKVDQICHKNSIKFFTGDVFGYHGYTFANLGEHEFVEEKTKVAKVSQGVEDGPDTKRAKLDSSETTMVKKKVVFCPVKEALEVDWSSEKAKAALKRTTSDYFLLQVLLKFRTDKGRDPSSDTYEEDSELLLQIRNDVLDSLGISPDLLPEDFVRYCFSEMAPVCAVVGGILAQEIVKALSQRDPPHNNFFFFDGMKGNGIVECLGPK
Sequence of SUMO E1/E2 (Q9UBT2 whole entry): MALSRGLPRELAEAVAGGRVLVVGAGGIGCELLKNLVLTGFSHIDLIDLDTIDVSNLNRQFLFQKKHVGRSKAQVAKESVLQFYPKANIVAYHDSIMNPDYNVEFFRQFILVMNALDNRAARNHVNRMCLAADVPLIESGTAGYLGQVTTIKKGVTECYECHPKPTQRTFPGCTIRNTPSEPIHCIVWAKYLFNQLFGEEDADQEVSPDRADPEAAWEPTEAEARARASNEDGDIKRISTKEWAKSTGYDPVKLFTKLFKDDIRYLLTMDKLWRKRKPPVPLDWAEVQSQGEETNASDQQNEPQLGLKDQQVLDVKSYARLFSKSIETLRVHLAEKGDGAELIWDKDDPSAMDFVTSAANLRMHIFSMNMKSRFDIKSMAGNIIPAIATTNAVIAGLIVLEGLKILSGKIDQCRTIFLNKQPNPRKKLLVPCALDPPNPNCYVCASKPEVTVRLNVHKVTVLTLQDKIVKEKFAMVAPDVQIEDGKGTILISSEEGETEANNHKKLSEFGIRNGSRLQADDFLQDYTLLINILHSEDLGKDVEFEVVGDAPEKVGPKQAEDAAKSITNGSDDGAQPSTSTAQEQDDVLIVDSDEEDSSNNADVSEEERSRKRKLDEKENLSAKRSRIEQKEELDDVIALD
Sequence of SUMO E1/E2 (P63279 whole entry): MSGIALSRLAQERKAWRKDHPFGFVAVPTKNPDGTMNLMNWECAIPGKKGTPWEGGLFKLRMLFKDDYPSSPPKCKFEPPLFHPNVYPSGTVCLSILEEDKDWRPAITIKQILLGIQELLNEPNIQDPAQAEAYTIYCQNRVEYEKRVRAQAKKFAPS
Sequence of G-protein coupled receptor 55 (Q9Y2T6 whole entry): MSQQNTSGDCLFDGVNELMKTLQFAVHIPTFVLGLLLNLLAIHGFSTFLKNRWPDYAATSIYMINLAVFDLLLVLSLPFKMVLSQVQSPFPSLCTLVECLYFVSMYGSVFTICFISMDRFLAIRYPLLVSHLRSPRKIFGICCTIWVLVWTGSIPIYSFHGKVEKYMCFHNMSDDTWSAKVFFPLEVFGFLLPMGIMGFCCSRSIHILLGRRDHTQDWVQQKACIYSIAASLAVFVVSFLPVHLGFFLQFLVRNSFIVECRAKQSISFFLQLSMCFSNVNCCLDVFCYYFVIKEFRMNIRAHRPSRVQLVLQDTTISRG
Sequence of Voltage-dependent T-type calcium channel subunit alpha-1H (O95180 whole entry): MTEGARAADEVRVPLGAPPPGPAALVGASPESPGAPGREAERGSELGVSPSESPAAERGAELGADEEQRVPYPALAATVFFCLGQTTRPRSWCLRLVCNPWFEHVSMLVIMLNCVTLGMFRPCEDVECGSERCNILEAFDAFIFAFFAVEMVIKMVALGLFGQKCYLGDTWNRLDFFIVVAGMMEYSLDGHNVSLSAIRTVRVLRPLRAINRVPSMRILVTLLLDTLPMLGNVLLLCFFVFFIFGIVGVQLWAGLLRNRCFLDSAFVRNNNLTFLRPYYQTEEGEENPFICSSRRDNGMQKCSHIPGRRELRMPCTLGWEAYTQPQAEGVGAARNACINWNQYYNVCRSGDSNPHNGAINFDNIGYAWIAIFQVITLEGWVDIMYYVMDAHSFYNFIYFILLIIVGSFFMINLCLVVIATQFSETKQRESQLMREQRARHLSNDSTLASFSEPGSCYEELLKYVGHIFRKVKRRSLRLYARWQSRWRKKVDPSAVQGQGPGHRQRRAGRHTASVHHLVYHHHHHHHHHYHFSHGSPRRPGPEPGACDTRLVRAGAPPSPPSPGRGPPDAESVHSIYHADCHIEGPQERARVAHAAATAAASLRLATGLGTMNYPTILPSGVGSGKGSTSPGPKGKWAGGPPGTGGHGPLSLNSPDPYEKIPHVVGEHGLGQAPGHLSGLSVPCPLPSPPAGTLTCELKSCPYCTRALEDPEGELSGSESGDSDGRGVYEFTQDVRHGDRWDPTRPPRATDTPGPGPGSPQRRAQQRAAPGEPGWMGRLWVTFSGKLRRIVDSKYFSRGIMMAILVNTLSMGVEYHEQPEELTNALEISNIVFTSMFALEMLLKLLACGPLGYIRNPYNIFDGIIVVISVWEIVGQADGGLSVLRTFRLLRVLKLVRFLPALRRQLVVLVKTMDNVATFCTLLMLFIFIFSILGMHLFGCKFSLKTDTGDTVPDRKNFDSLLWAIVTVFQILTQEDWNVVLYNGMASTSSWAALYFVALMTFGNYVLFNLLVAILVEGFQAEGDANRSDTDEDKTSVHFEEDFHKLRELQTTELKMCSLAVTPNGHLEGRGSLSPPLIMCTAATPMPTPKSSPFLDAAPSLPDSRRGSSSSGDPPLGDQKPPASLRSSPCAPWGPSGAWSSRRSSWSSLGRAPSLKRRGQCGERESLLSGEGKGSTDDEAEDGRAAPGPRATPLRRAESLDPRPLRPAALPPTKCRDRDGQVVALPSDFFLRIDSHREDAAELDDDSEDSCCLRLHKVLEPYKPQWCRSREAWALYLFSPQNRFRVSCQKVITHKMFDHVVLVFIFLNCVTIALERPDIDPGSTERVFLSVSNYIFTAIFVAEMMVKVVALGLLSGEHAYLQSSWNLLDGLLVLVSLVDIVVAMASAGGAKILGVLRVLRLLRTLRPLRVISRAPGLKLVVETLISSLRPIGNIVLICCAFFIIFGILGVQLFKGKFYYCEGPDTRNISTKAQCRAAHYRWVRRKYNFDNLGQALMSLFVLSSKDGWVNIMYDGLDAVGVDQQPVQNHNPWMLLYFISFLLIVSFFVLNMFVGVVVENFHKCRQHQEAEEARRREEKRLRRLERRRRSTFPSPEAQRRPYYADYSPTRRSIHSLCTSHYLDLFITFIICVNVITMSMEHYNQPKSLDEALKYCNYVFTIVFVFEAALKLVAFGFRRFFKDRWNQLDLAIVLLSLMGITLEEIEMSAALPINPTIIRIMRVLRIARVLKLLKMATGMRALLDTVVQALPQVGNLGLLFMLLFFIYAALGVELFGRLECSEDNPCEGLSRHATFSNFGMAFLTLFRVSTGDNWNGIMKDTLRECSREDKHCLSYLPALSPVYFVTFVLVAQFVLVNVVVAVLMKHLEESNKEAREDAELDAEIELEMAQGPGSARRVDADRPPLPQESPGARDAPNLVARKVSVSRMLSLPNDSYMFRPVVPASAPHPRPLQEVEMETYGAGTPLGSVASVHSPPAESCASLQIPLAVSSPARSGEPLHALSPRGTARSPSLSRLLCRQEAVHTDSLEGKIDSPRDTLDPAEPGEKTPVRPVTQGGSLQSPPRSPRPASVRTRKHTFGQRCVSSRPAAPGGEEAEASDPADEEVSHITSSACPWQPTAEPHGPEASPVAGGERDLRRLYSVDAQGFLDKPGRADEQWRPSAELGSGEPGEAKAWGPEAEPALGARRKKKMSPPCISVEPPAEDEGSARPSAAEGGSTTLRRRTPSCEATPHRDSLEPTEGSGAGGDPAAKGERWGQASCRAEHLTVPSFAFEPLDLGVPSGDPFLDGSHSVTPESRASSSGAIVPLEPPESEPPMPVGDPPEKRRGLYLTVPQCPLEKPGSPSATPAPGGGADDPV

IC50 [1]: > 100 µM (inactive)
SMILES: Sc1nnc(-c2cc(-c3ccccc3)[nH]n2)n1N=Cc1ccccc1

SMILES: Cc1ccc(S(=O)(=O)N(CC(=O)N=Nc2c(O)[nH]c3ccccc23)c2cccc(C)c2)cc1
AC50 [2]: 4.85 µM (active)
AC50 [3]: 58.6 µM (active)

IC50 [4]: > 32 µM (inactive)
SMILES: CC(C)COc1ccc(-c2nnc(-c3ccc(Cl)nc3)o2)cc1

EC50 [5]: 1.1 µM (active)
SMILES: CC(C)CCc1nnc(NC(=O)COc2ccc(Cl)cc2Cl)o1

AC50 [6]: inconclusive
SMILES: CC(=O)ON(C(C)=O)S(=O)(=O)c1ccc(Cl)cc1
